Data: US20210206763A1, “Anti-Proliferative Agents” (FEMTOGENIX LIMITED, priority 2015, published 2021)

Tests used:
[1] = tested on: NFκB transcription factor binding sequence (duplex oligonucleotide); experiment: DNA adduct formation by HPLC; settings: 4:1 molar ratio ligand:oligonucleotide, room temperature
Description: Interaction of C8-linked PDD monomers with duplex transcription factor consensus sequence was studied with an HPLC assay utilizing a X-bridge MS C18 2.5 μM OST column (2.3×50 mm) and a gradient of 40% acetonitrile/water and 100 mM TEAB ([…])/water as mobile phase with a flow rate of 0.5 mL/min and UV detection at 254 nm. A 4:1 molar ratio of ligand:oligonucleotide was used, with each single-stranded oligonucleotide dissolved in 1 M ammonium acetate to form stock solutions of 1 mM. The oligonucleotides were initially annealed by heating their 1 mM solutions to 70° C. for 10 mins followed by gradual cooling over 8 hours and storage overnight at −20° C. Working solutions of oligonucleotides of 25 μM were then prepared by diluting the annealed stock solutions with 100 mM ammonium acetate. The ligands were dissolved in DMSO to form a stock solution of 10 mM which was stored at −20° C. for no longer than four months. Working solutions of the drug of 100 μM were prepared by diluting the stock solution with 100 mM ammonium acetate. The working solutions of the ligands were added to the working solution the oligonucleotides at RT, and the mixture incubated for different time intervals at room temperature.

[2] = tested on: NFκB Transcription Factor duplex DNA sequence; experiment: FRET DNA melting assay with transcription factor duplex DNA; format: binding; settings: 1 μM ligand concentration; 24 hours incubation
Description: (§1) Oligonucleotide sequences used for the FRET assays were purchased from Eurogentec, Southampton, UK: TAMRA (6-carboxytetramethylrhodamine) and FAM (6-carboxyfluorescein) are acceptor and donor fluorophores, respectively. From 20 μM stock solutions, 400 nM solutions in FRET buffer (optimized as 50 mM potassium, 50 mM cacodylate, pH 7.4) were prepared prior to use. The oligonucleotides were annealed through heating the samples to 90° C. for 10 mins followed by cooling to room temperature and storing at this temperature for 5 h. Dilutions from the initial 5 mM DMSO stock solution were performed using FRET buffer. Annealed DNA (50 μL) and sample solution (50 μL) were added to each well of a 96-well plate (MJ Research, Waltham, Mass.), and processed in a DNA Engine Opticon (MJ Research). Fluorescence readings were taken at intervals of 0.5° C. over the range 30-100° C., with a constant temperature maintained for 30 seconds prior to each reading. Incident radiation of 450-495 nm was used, with detection at 515-545 nm. The raw data were imported into the program Origin (Version 7.0, OringinLab Corp.), and the graphs were smoothed using a 10-point running average, and then normalized. Determination of melting temperatures was based on values at the maxima of the first derivative of the smoothed melting curves using a script. The difference between the melting temperature of each sample and that of the blank (ΔTm) was used for comparative purposes.

[3] = tested on: AP-1 Transcription Factor duplex DNA sequence; experiment: as above; format: binding; settings: 1 μM ligand concentration; 24 hours incubation
Description: as §1

[4] = tested on: MDA MB 231 (Triple negative breast cancer cell line); experiment: MTT cytotoxicity assay of C8-linked PDD monomers; format: cell-based; settings: Homo sapiens, 72 hours exposure
Description: (§2) MDA MB231 (triple negative human breast cancer) was obtained from the American Type Culture Collection. The cell-line was maintained in monolayer culture in 75 cm^2 flasks (TPP, Switzerland) under a humidified 5% CO2 atmosphere at 37° C. The MDA MB231 cell line was maintained in high glucose DMEM (4.5 g/l; Invitrogen), foetal bovine serum (10%, Biosera UK), non-essential amino acids (ix; Invitrogen), L-glutamine (2 mM; Invitrogen) and Penicillin-Streptomycin (1% v/v, Invitrogen). The HeLa cell line was maintained in Dulbecco's Modified Eagles Media (DMEM; Invitrogen) supplemented with foetal bovine serum (10% v/v; Invitrogen), L-glutamine (2 mM; Invitrogen), non-essential amino acids (lx; Invitrogen) and Penicillin-Streptomycin (1% v/v, Invitrogen). For passaging, cells were washed with PBS (GIBCO 14040, Invitrogen, UK), incubated with trypsine (GIBCO 25300, Invitrogen, UK), and re-seeded into fresh medium. For seeding, cells were counted using a Neubauer haemocytometer (Assistant, Germany) by microscopy (Nikon, USA) on a non-adherent suspension of cells that were washed in PBS, trypsinised, centrifuged at 8° C. at 8000 rpm for 5 min and re-suspended in fresh medium.
(§3) The cells were grown in normal cell culture conditions at 37° C. under a 5% CO2 humidified atmosphere using appropriate medium. The cell count was adjusted to 10^5 cells/ml and 5,000-20,000 cells were added per well depending on the cell line. The cells were incubated for 24 hours and 1 μl of the appropriate inhibitor concentrations were added to the wells in triplicates. After 72 h of continuous exposure to each compound, the cytotoxicity was determined using the 3-(4,5-Dimethylthiazol-2-yl)-2,5-diphenyltetrazolium bromide (MTT) (Lancaster Synthesis Ltd, UK) colorimetric assay.^[34 Absorbance was quantified by spectrophotometry at λ=570 nm (Envision Plate Reader, PerkinElmer, USA). IC50 values were calculated by a dose-response analysis using the GraphPad Prism® software.

[5] = tested on: HeLa (Cervical cancer cell line); experiment: MTT cytotoxicity assay of C8-linked PDD monomers; format: cell-based; settings: Homo sapiens, 72 hours exposure
Description: as §2, §3

| SMILES | DNA adduct formation (HPLC chromatogram) [1] | ΔTm NFκB (1st transition) [2] | ΔTm NFκB (2ND transition) [2] | ΔTm AP-1 (1st transition) [3] | ΔTm AP-1 (2ND transition) [3] | IC50 [4] | IC50 [5] |
| --- | --- | --- | --- | --- | --- | --- | --- |
| COC(=O)c1cc2cc(NC(=O)c3cc(NC(=O)CCCOc4cc5c(cc4OC)C(=O)N4CCCC[C@H]4C=N5)cn3C)ccc2s1 [Compound 13, Methyl (S)-5-(4-(4-((2-methoxy-12-oxo-6a,7,8,9,10,12-hexa-hydrobenzo[e]pyrido[1,2-a][1,4]diazepin-3-yl)oxy)butanamido)-1-methyl-1H-pyrrole-2-carboxamido)benzo[b]thiophene-2-carboxylate] | DNA adduct formation | 12 °C | 23 °C | 11 °C | 19 °C | 64000 ± 9600 pM | 600 ± 400 pM |
| COC(=O)c1cc2cc(NC(=O)c3nc(NC(=O)CCCOc4cc5c(cc4OC)C(=O)N4CCCC[C@H]4C=N5)cn3C)ccc2s1 [Compound 17, Methyl (S)-5-(4-(4-((2-methoxy-12-oxo-6a,7,8,9,10,12-hexa-hydrobenzo[e]pyrido[1,2-a][1,4]diazepin-3-yl)oxy)butanamido)-1-methyl-1H-imidazole-2-carboxamido)benzo[b]thiophene-2-carboxylate] | DNA adduct formation | 11 °C | 26 °C | 13 °C | 18 °C | 21000 ± 1800 pM | 1200 ± 800 pM |
| COC(=O)c1cc(-c2ccc(NC(=O)c3nc(NC(=O)CCCOc4cc5c(cc4OC)C(=O)N4CCCC[C@H]4C=N5)cn3C)cc2)cn1C [Compound 20, Methyl (S)-4-(4-(4-(4-((2-methoxy-12-oxo-6a,7,8,9,10,12-hexahydrobenzo[e]pyrido[1,2-a][1,4]diazepin-3-yl)oxy)butanamido)-1-methyl-1H-imidazole-2-carboxamido)phenyl)-1-methyl-1H-pyrrole-2-carboxylate] | DNA adduct formation | 9 °C | 12 °C | 8 °C | 13 °C | 300 ± 220 pM | 140 ± 90 pM |
| COC(=O)c1cc(-c2ccc(NC(=O)c3cc(NC(=O)CCCOc4cc5c(cc4OC)C(=O)N4CCCC[C@H]4C=N5)cn3C)cc2)cn1C [Compound 24, Methyl (S)-4-(4-(4-(4-((2-methoxy-12-oxo-6a,7,8,9,10,12-hexahydrobenzo[e]pyrido[1,2-a][1,4]diazepin-3-yl)oxy)butanamido)-1-methyl-1H-pyrrole-2-carboxamido)phenyl)-1-methyl-1H-pyrrole-2-carboxylate] | DNA adduct formation | 10 °C | 14 °C | 9 °C | 15 °C | 800 ± 660 pM | 1000 ± 120 pM |
